Data from patent US20220127247A1, “N-(PYRIDIN-2-YL)PYRIDINE-SULFONAMIDE DERIVATIVES AND THEIR USE IN THE TREATMENT OF DISEASE” (NOVARTIS AG, priority 2019, published 2022).

Columns and labels:
[1] = biological target: T1, delF508-CFTR (Homo sapiens, UniProt P13569, DEL508-508); test: Measurement of delF508-CFTR-HRP surface expression in CFBE41o- cells; assay type: cell-based; conditions: for EC50: HRP-tagged delF508-CFTR in CFBE41o- cells, 24 h with compound, luminescence, 10-point curve, top 10 μM; for Emax: efficacy relative to reference compound 3-(6-(1-(2,2-difluorobenzo[d][1,3]dioxol-5-yl)cyclopropane-1-carboxamido)-3-methylpyridin-2-yl)benzoic acid, CFBE41o- cells, 24 h, read-out: DelF508-CFTR-HRP Amax %
T1 construct: expressed in transfected cells
In short: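 CFBE41o- cells stably expressing delF508-CFTR with HRP in the fourth extracellular loop, induced with 500 ng/mL doxycycline for 48 h, then treated with compound (top 10 μM, 10-point 3-fold) for 24 h at 37° C. Surface HRP detected by luminescence with cell-impermeant substrate; EC50 from logistic fit of triplicates, normalized to lowest concentration.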

[2] = biological target: T1, delF508-CFTR; test: delF508-CFTR functional activity in primary human bronchial epithelial cells (HBECs), Multi-Transepithelial Clamp Circuit (MTECC-24) assay; assay type: cell-based; conditions: for EC50: primary human delF508-CFTR bronchial epithelial cells, 24 h with compound, equivalent short circuit current (Ieq), forskolin plus potentiator, mean of at least two replicates, read-out: MTECC24-CFHBEC EC50; for MTECC24-CFHBEC Amax %: test compound added 24 h before assay, with potentiator (S)-3-amino-6-methoxy-N-(3,3,3-trifluoro-2-hydroxy-2-methylpropyl)-5-(trifluoromethyl)picolinamide, relative to 2 μM 3-(6-(1-(2,2-difluorobenzo[d][1,3]dioxol-5-yl)cyclopropane-1-carboxamido)-3-methylpyridin-2-yl)benzoic acid + 0.5 μM N-(2,4-di-tert-butyl-5-hydroxyphenyl)-4-oxo-1,4-dihydroquinoline-3-carboxamide
Excerpt: Measurement of delF508-CFTR Functional Activity in Primary Human Bronchial Epithelial Cells (HBECs) Using Multi-Transepithelial Clamp Circuit (MTECC-24) Assay
This assay measures the functional activity of the CFTR channel (Chloride ion transport) in patient derived primary human bronchial epithelial cells with forskolin activation and in the presence of the CFTR corrector/potentiator combination.
Primary human delF508-CFTR bronchial epithelial cells were and cultured according to previously established methods (Neuberger, T. et, al., Methods in Molecular Biology, 2011, 741, pp 39-54). Briefly, before thawing the HBEC cells, T25 flasks were coated with 2 mL of 3T3 conditioned media (MTI-GlobalStem, Cat #GSM9100) for at least 12 hours in 37° C. CO2 incubator. 1.7×10^5 cells were seeded into one T25 flask with 5 mL of HBE growth media (BEBM with supplements (Lonza, Cat #CC-3170) with 10 nM of retinoic acid (Sigma, Cat #R-2625) and 1% of PSA (Hyclone, Cat #SV30079.01). Media was changed every day till the cells were 100% confluent. Cells were seeded into T75 flasks (pre-coated with 5 mL of 3T3 conditioned media for more than 12 hrs) at 4.95×10^5 cells/T75 flask in 15 mL of HBE growth media. Flasks were fed everyday with fresh HBE growth media until the cells were confluent. 24-well transwell plates (Corning, Cat #3378) were coated with 3T3 conditioned media (70 μL on top of the filter, 350 μL to the bottom of the well) overnight in the 37° C. CO2 incubator. Cells were seeded in the pre-coated 24-well transwell plates at 1.7×10^5 cell/well with 700 μL of growth media at the bottom of the well and 200 μL of growth media at the top of the filter. After 24 hrs, cells were switched into HBE differentiation media ((DMEM/F12 (Gibco, Cat #11330-032) supplement with 2% Ultroser G (Pall, Cat #15950-017), 2% of Fetal Clone II (Hyclone, Cat #SH30066.03), 0.25% Bovine Brain Extract (Lonza, Cat #CC-4098), 1% of PSA, 2.5 μg/mL of Insulin (Sigma, Cat #19278), 20 nM of Hydrocortisone (Sigma, Cat #H0888), 500 nM of Triiodothyronine (Sigma, Cat #T6397), 2.5 μg/mL of Transferrin (Sigma, Cat #T8158), 250 nM of Ethanolamine (Sigma, Cat #E0135), 1.5 μM of Epinephrine (Sigma, Cat #E4250), 250 nM of Phosphoethanolamine (Sigma, Cat #P0503), 10 nM of retinoic acid)) with 200 μL on top of the filter (apical side) and 700 μL at the bottom of the well (basolateral side). Cells were fed every other day with the differentiation media. After 4 days, cells were exposed to air/liquid interface. Then cells were fed every other day for 4 weeks before fully differentiated.
Cells were washed with 3 mM DTT in PBS at 70 ul/well for 30 min at 37° C. 6 days before the assay. 3 days before the assay, cells were washed again with PBS at 70 ul/well for 30 min at 37° C. Then cells were treated with compound for 24 hrs before the assay.
Following 24 hr treatment with compound, cells were transferred into plates containing 750 ul of assay media on basolateral side and 250 ul on apical side (Assay medium: F-12 Coon's modified, 20 mM HEPES pH7.4 with TRIS Base, No FCS or bicarbonate). The plates wee then transferred to the heated plate compartments (basolateral buffer temperature ˜36.5° C. on the heating block) of the TECC24 system for 45 mins prior to measurements.
Modulators were added sequentially as follows while the TECC24 instrument recorded the equivalent short circuit current (Ieq):
Prior to dilution into assay medium the stocks were as follows: • Benzamil stock: 10 mM in DMSO • Forskolin Stock: 50 mM in DMSO • N-(2,4-di-tert-butyl-5-hydroxyphenyl)-1,4-dihydro-4-oxoquinoline-3-carboxamide: 50 mM in DMSO • (S)-3-amino-6-methoxy-N-(3,3,3-trifluoro-2-hydroxy-2-methylpropyl)-5-(trifluoromethyl)picolinamide: 50 mM stock 100% DMSO • Bumetanide stock: 20 mM in EtOH
The data was normalized using the median signal from wells treated with 0.1% DMSO as a baseline. Curve fitting and EC50 calculations were performed using the following equation: […]

T1 sequence (P13569 with tags, fused parts or gaps DEL508-508): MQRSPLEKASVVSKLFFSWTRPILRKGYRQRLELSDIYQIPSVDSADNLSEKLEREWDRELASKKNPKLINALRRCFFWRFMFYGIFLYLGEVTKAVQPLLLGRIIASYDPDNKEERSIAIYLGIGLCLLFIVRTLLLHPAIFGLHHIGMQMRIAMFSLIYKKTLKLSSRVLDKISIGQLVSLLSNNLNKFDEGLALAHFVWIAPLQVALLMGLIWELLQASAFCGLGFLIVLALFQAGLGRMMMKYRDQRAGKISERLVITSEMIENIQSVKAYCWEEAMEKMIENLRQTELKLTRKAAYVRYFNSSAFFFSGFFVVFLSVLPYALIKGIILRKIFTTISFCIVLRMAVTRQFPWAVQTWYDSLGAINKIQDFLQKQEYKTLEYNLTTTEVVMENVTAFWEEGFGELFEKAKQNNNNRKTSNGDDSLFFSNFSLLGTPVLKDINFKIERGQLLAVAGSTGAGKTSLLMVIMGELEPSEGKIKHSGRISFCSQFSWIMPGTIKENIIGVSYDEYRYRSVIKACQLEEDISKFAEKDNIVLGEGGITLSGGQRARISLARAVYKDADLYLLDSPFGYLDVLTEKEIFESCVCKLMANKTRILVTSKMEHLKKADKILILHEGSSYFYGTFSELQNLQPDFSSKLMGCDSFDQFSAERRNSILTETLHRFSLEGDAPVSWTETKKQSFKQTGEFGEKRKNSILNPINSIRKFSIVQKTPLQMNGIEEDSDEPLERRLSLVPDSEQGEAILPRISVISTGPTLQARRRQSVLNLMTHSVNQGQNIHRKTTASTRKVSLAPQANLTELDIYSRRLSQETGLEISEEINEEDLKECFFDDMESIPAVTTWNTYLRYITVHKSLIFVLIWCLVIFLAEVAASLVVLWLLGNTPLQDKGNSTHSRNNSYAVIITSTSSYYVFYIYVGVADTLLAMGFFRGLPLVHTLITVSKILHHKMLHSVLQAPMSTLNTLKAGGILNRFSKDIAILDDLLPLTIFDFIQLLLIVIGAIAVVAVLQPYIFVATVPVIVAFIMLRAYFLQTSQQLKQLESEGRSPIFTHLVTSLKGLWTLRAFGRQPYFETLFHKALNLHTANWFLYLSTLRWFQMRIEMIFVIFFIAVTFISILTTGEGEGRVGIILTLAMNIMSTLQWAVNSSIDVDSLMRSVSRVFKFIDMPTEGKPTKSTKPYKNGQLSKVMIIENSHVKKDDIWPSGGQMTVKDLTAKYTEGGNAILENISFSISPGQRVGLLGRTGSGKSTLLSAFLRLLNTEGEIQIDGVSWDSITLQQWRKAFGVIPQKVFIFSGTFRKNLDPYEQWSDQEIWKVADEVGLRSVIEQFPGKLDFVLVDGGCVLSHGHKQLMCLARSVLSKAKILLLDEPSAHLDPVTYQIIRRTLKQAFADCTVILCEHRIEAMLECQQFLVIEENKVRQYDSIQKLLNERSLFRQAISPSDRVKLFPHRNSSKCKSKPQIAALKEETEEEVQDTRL

| Compound | EC50 [1] [nM] | EC50 [2] [nM] | MTECC24-CFHBEC Amax % [2] [%] | Emax [1] [%] |
| --- | --- | --- | --- | --- |
| Cc1ccccc1-c1nc(NS(=O)(=O)c2cccc(N3CCC[C@H](CCC(=O)O)C3)n2)ccc1C(F)(F)F (single isomer, unassigned) [Compound 62] | 1220 | 9 | 150 | – |
| Cc1ccccc1-c1nc(NS(=O)(=O)c2cccc(N3CCC[C@@H](CCC(=O)O)C3)n2)ccc1C(F)(F)F (single isomer, unassigned) [Compound 63] | 1460 | 17 | 149 | – |
| Cc1ccc(F)cc1-c1nc(NS(=O)(=O)c2cccc(N3CCC[C@@](C)(CC(=O)O)C3)n2)ccc1C(F)(F)F (single isomer, unassigned) [Compound 64] | 1330 | 2 | 107 | – |
| Cc1ccc(F)cc1-c1nc(NS(=O)(=O)c2cccc(N3CCC[C@](C)(CC(=O)O)C3)n2)ccc1C(F)(F)F (single isomer, unassigned) [Compound 65] | 1730 | 31 | 155 | – |
| CCN(CCC(=O)O)c1cccc(S(=O)(=O)Nc2ccc(C(F)(F)F)c(-c3cccc(F)c3C)n2)n1 [Compound 56, 3-(ethyl(6-(N-(6-(3-fluoro-2-methylphenyl)-5-(trifluoromethyl)pyridin-2-yl)sulfamoyl)pyridin-2-yl)amino)propanoic Acid] | 2170 | 373 | 131 | 906 |
| Cc1ccccc1-c1nc(NS(=O)(=O)c2cccc(N3CCC[C@@H](CC(=O)O)C3)n2)ccc1C(F)(F)F [Compound 60, (S)-2-(1-(6-(N-(6-(o-tolyl)-5-(trifluoromethyl)pyridin-2-yl)sulfamoyl)pyridin-2-yl)piperidin-3-yl)acetic Acid] | 1910 | 65 | 128 | 997 |
| Cc1ccccc1-c1nc(NS(=O)(=O)c2cccc(N(C)CCCCC(=O)O)n2)ccc1C(F)(F)F [Compound 66, 5-(methyl(6-(N-(6-(o-tolyl)-5-(trifluoromethyl)pyridin-2-yl)sulfamoyl)pyridin-2-yl)amino)pentanoic Acid] | 1600 | 185 | 133 | – |
| Cc1c(F)cccc1-c1nc(NS(=O)(=O)c2cccc(N(C)CCCCC(=O)O)n2)ccc1C(F)(F)F [Compound 67, 5-((6-(N-(6-(3-fluoro-2-methylphenyl)-5-(trifluoromethyl)pyridin-2-yl)sulfamoyl)pyridin-2-yl)(methyl)amino)pentanoic Acid] | 1630 | 161 | 168 | – |
| Cc1ccc(F)cc1-c1nc(NS(=O)(=O)c2cccc(N(C)CCCCC(=O)O)n2)ccc1C(F)(F)F [Compound 68, 5-((6-(N-(6-(5-fluoro-2-methylphenyl)-5-(trifluoromethyl)pyridin-2-yl)sulfamoyl)pyridin-2-yl)(methyl)amino)pentanoic Acid] | 1350 | 423 | 116 | 996 |

The remaining lines, values ahead:

| EC50 [1] [nM] | EC50 [2] [nM] | MTECC24-CFHBEC Amax % [2] [%] | Emax [1] [%] | Compound |
| --- | --- | --- | --- | --- |
| 1570 | 68 | 126 | – | CCN(CCC(=O)O)c1cccc(S(=O)(=O)Nc2ccc(C(F)(F)F)c(-c3ccccc3C(C)C)n2)n1 [Compound 70, 3-(ethyl(6-(N-(6-(2-isopropylphenyl)-5-(trifluoromethyl)pyridin-2-yl)sulfamoyl)pyridin-2-yl)amino)propanoic Acid] |
| 2360 | 365 | 137 | – | CCN(CCC(=O)O)c1cccc(S(=O)(=O)Nc2ccc(C(F)(F)F)c(-c3ccccc3C)n2)n1 [Compound 71, 3-(ethyl(6-(N-(6-(o-tolyl)-5-(trifluoromethyl)pyridin-2-yl)sulfamoyl)pyridin-2-yl)amino)propanoic Acid] |
| 1880 | 116 | 118 | – | CCc1ccccc1-c1nc(NS(=O)(=O)c2cccc(N(CC)CCC(=O)O)n2)ccc1C(F)(F)F [Compound 72, 3-(ethyl(6-(N-(6-(2-ethylphenyl)-5-(trifluoromethyl)pyridin-2-yl)sulfamoyl)pyridin-2-yl)amino)propanoic Acid] |
| 1930 | 105 | 95 | – | CCN(CCC(=O)O)c1cccc(S(=O)(=O)Nc2ccc(C(F)(F)F)c(-c3ccccc3C3CC3)n2)n1 [Compound 80, 3-((6-(N-(6-(2-cyclopropylphenyl)-5-(trifluoromethyl)pyridin-2-yl)sulfamoyl)pyridin-2-yl)(ethyl)amino)propanoic Acid] |
| 1770 | 35 | 145 | – | CCc1ccc(F)cc1-c1nc(NS(=O)(=O)c2cccc(N(CC)CCC(=O)O)n2)ccc1C(F)(F)F [Compound 81, 3-(ethyl(6-(N-(6-(2-ethyl-5-fluorophenyl)-5-(trifluoromethyl)pyridin-2-yl)sulfamoyl)pyridin-2-yl)amino)propanoic Acid] |
| 1410 | 30 | 152 | – | CCc1ccccc1-c1nc(NS(=O)(=O)c2cccc(N3CCC[C@@H](CC(=O)O)C3)n2)ccc1C(F)(F)F [Compound 85, (S)-2-(1-(6-(N-(6-(2-ethylphenyl)-5-(trifluoromethyl)pyridin-2-yl)sulfamoyl)pyridin-2-yl)piperidin-3-yl)acetic Acid] |
| 1380 | 61 | 253 | – | Cc1ccccc1-c1nc(NS(=O)(=O)c2cccc(N(CCC(=O)O)CC3CC3)n2)ccc1C(F)(F)F [Compound 86, 3-((cyclopropylmethyl)(6-(N-(6-(o-tolyl)-5-(trifluoromethyl)pyridin-2-yl)sulfamoyl)pyridin-2-yl)amino)propanoic Acid] |
| 1380 | 104 | 269 | – | CCCCN(CCCC(=O)O)c1cccc(S(=O)(=O)Nc2ccc(C(F)(F)F)c(-c3ccccc3C)n2)n1 [Compound 87, 4-(butyl(6-(N-(6-(o-tolyl)-5-(trifluoromethyl)pyridin-2-yl)sulfamoyl)pyridin-2-yl)amino)butanoic Acid] |
